# Measured values: PubChem BioAssay AID2060487 (Molecular Pharmacology Branch, DTP, NCI, 2025)
# Tested on: 997537-175-T-J1-PDC complex spheroid viability
# Assay: Anticancer human tumor 997537-175-T-J1-PDC patient-derived colon adenocarcinoma cell line growth inhibition [GQUAD]
# Conditions: for IC50: curve of first compound; for viability, T/C: stronger effect = lower value
# Summary of the method: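 Multi-cell-type spheroids of tumor cells with HUVEC and mesenchymal stem cells, treated with drug combinations. Concentrations descend in half-log steps from near clinical Cmax, or from 10 microM where Cmax is unknown; viability read-out.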
# [1] = second compound 0.0316 µM, first compound 0.0316 µM
# [2] = second compound 0.0316 µM, first compound 0.1 µM
# [3] = second compound 0.0316 µM, first compound 0.316 µM
# [4] = second compound 0.0316 µM, first compound 1 µM
# [5] = second compound 0.0316 µM, first compound 3.16 µM
# [6] = second compound 0.0316 µM, first compound 10 µM
# [7] = second compound 0.1 µM, first compound 0.0316 µM
# [8] = second compound 0.1 µM, first compound 0.1 µM
# [9] = second compound 0.1 µM, first compound 0.316 µM
# [10] = second compound 0.1 µM, first compound 1 µM
# [11] = second compound 0.1 µM, first compound 3.16 µM
# [12] = second compound 0.1 µM, first compound 10 µM
# [13] = second compound 0.316 µM, first compound 0.0316 µM
# [14] = second compound 0.316 µM, first compound 0.1 µM
# [15] = second compound 0.316 µM, first compound 0.316 µM
# [16] = second compound 0.316 µM, first compound 1 µM
# [17] = second compound 0.316 µM, first compound 3.16 µM
# [18] = second compound 0.316 µM, first compound 10 µM
# [19] = second compound 1 µM, first compound 0.0316 µM
# [20] = second compound 1 µM, first compound 0.1 µM
# [21] = second compound 1 µM, first compound 0.316 µM
# [22] = second compound 1 µM, first compound 1 µM
# [23] = second compound 1 µM, first compound 3.16 µM
# [24] = second compound 1 µM, first compound 10 µM
# [25] = second compound 3.16 µM, first compound 0.0316 µM
# [26] = second compound 3.16 µM, first compound 0.1 µM
# [27] = second compound 3.16 µM, first compound 0.316 µM
# [28] = second compound 3.16 µM, first compound 1 µM
# [29] = second compound 3.16 µM, first compound 3.16 µM
# [30] = second compound 3.16 µM, first compound 10 µM
# [31] = second compound 10 µM, first compound 0.0316 µM
# [32] = second compound 10 µM, first compound 0.1 µM
# [33] = second compound 10 µM, first compound 0.316 µM
# [34] = second compound 10 µM, first compound 1 µM
# [35] = second compound 10 µM, first compound 3.16 µM
# [36] = second compound 10 µM, first compound 10 µM
# 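Note: spheroids exposed to the agents for 7 days.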
# 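Throughout, for viability, T/C: 100% = DMSO vehicle control viability.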
structure (smiles),measurement,setting,value
C=CCn1c(=O)c2cnc(Nc3ccc(N4CCN(C)CC4)cc3)nc2n1-c1cccc(C(C)(C)O)n1 + Cc1cnc(CNC(=O)c2c(=O)c3ccc(N4CCCN(C)CC4)nc3n3c2sc2ccccc23)cn1,IC50,second compound 0.0316 µM,1.87 µM
same,IC50,second compound 0.1 µM,2.73 µM
same,IC50,second compound 0.316 µM,2.55 µM
same,IC50,second compound 1 µM,7.65 µM
same,IC50,second compound 3.16 µM,> 10 µM
same,IC50,second compound 10 µM,8.48 µM
same,"viability, T/C",[1],105%
same,"viability, T/C",[2],76.5%
same,"viability, T/C",[3],99%
same,"viability, T/C",[4],70.5%
same,"viability, T/C",[5],32.8%
same,"viability, T/C",[6],20.4%
same,"viability, T/C",[7],105%
same,"viability, T/C",[8],104%
same,"viability, T/C",[9],98.3%
same,"viability, T/C",[10],71.2%
same,"viability, T/C",[11],48.6%
same,"viability, T/C",[12],30.4%
same,"viability, T/C",[13],89%
same,"viability, T/C",[14],94.2%
same,"viability, T/C",[15],91.3%
same,"viability, T/C",[16],74%
same,"viability, T/C",[17],44.8%
same,"viability, T/C",[18],38.1%
same,"viability, T/C",[19],80.5%
same,"viability, T/C",[20],99.8%
same,"viability, T/C",[21],112%
same,"viability, T/C",[22],61.1%
same,"viability, T/C",[23],76%
same,"viability, T/C",[24],43.2%
same,"viability, T/C",[25],63.1%
same,"viability, T/C",[26],98.4%
same,"viability, T/C",[27],96%
same,"viability, T/C",[28],107%
same,"viability, T/C",[29],75.2%
same,"viability, T/C",[30],50.6%
same,"viability, T/C",[31],73.8%
same,"viability, T/C",[32],99.3%
same,"viability, T/C",[33],87.2%
same,"viability, T/C",[34],87%
same,"viability, T/C",[35],79.8%
same,"viability, T/C",[36],44.8%
COc1ncnc(C2CC2)c1-c1ncc2cnn(Cc3ccc(-c4nc(C(F)(F)F)cn4C(C)C)cc3)c2n1 + Cc1cnc(CNC(=O)c2c(=O)c3ccc(N4CCCN(C)CC4)nc3n3c2sc2ccccc23)cn1,IC50,second compound 0.0316 µM,> 10 µM
same,IC50,second compound 0.1 µM,> 10 µM
same,IC50,second compound 0.316 µM,> 10 µM
same,IC50,second compound 1 µM,> 10 µM
same,IC50,second compound 3.16 µM,> 10 µM
same,IC50,second compound 10 µM,> 10 µM
same,"viability, T/C",[1],118%
same,"viability, T/C",[2],78.4%
same,"viability, T/C",[3],102%
same,"viability, T/C",[4],66.6%
same,"viability, T/C",[5],55.3%
same,"viability, T/C",[6],96.1%
same,"viability, T/C",[7],95.3%
same,"viability, T/C",[8],69%
same,"viability, T/C",[9],88.5%
same,"viability, T/C",[10],92.5%
same,"viability, T/C",[11],85%
same,"viability, T/C",[12],94.5%
same,"viability, T/C",[13],89.1%
same,"viability, T/C",[14],86.2%
same,"viability, T/C",[15],89.5%
same,"viability, T/C",[16],88.5%
same,"viability, T/C",[17],91.3%
same,"viability, T/C",[18],92.7%
same,"viability, T/C",[19],73.8%
same,"viability, T/C",[20],85.1%
same,"viability, T/C",[21],100%
same,"viability, T/C",[22],101%
same,"viability, T/C",[23],121%
same,"viability, T/C",[24],97.5%
same,"viability, T/C",[25],56%
same,"viability, T/C",[26],107%
same,"viability, T/C",[27],104%
same,"viability, T/C",[28],84.7%
same,"viability, T/C",[29],106%
same,"viability, T/C",[30],97.4%
same,"viability, T/C",[31],75.3%
same,"viability, T/C",[32],109%
same,"viability, T/C",[33],101%
same,"viability, T/C",[34],92%
same,"viability, T/C",[35],102%
same,"viability, T/C",[36],116%
